According to patent US8338173B2, “Preparation of antigen-presenting human γδ T cells and use in immunotherapy” (University College Cardiff Consultants Limited, priority 2005, dated 2012):

Experiments:
Vγ9Vδ2^+ T cells = test: Expression of cell surface APC markers during γδ T cell activation with inhibitors; settings: FIG. 19 B
[1] = tested on: M1p58-66-specific CD8^+ αβ T cell clone FLUMA55; assay type: cell-based, human
naïve CD4^+ αβ T cells = assay type: cell-based, human
[2] = tested on: Melp26-35-specific, HLA-A2-restricted CD8^+ αβ T cell clone LAU 337; assay type: cell-based, human

Molecule: C[C@H]1CCC/C=C/[C@@H]2C[C@H](O)C[C@H]2[C@H](O)/C=C/C(=O)O1 [brefeldin A]
- expression of cell surface APC markers (MHC II, CD71, CD80, CD86) after TCR-triggering (Vγ9Vδ2^+ T cells): inhibited
- inhibition of M1 cross-presentation in γδ T-APCs and DCs [1]: fully inhibited
- responses to M1p58-66 pulsed APCs [1]: only partially affected

Molecule: CCN(CC)CCCC(C)Nc1ccnc2cc(Cl)ccc12 (stereo not drawn) [chloroquin]
- inhibition of M1 cross-presentation in γδ T-APCs and DCs [1]: ≤ 50%

Molecule: CC(=O)N[C@@H](CSC(=O)[C@]1([C@@H](O)C(C)C)NC(=O)[C@H](C)[C@@H]1O)C(=O)O [lactacystin]
- expression of cell surface APC markers (MHC II, CD71, CD80, CD86) after TCR-triggering (Vγ9Vδ2^+ T cells): inhibited
- inhibition of M1 cross-presentation in γδ T-APCs and DCs [1]: fully inhibited
- responses to M1p58-66 pulsed APCs [1]: only partially affected

Molecule: phytohemagglutinin [PHA]
- Vβ2^+ (%) (naïve CD4^+ αβ T cells): 9%

B1: Melan-A: melanocyte/melanoma-differentiation antigen (protein, UniProt Q16655 1-118, looked up)
Melanoma antigen recognized …: MPREDAHFIYGYPKKGHGHSYTTAEEAAGIGILTVILGVLLLIGCWYCRRRNGYRALMDKSLHVGTQCALTRRCPQEGFDHRDSKVSLQEKNCEPVVPNAPPAYEKLSAEQSPPPYSP
- IFN-γ production in Melp26-35-specific responder cell clones [2]: failed to induce IFN-γ production
